Data as given in paper PMC7859440, “Transporter Gene Regulation in Sandwich Cultured Human Hepatocytes Through the Activation of Constitutive Androstane Receptor (CAR) or Aryl Hydrocarbon Receptor (AhR)” (Frontiers in Pharmacology, 2021).
Where “and” joins values, the source holds several entries; their conditions need not be identical. Equal values may be shown once.

Legend:
UGT1A1 = assay: gene induction in sandwich-cultured human hepatocytes (qRT-PCR)
Procedure: (§1) Cryopreserved human hepatocytes were quickly thawed at 37°C and then transferred into hepatocyte thawing medium. Cells were pelleted at 100 × g for 10 min and then resuspended in hepatocyte complete plating medium (CP medium). The cells were then seeded at 65,000 cells per well in 96-well collagen I coated plates. After cell attachment (4–6 h post-seeding), CP medium was exchanged for ice-cold complete incubation medium (HI medium) containing BD Matrigel™ at the concentration of 0.25 mg/ml. The cells were then incubated overnight at 37°C in a humidified 5% CO2 incubator. […] Cell death or loss of adhesion of hepatocytes during or after treatment were examined by microscopy.
(§2) A RNeasy 96 Kit (Qiagen) was used to extract the total cellular RNA from sandwich cultured hepatocytes in 96-well plates following the manufacturer's instructions. A total volume of 200 μL RNA was obtained via the column elution provided in the RNeasy kit. Five μL RNA extraction was mixed with TaqMan® Fast Virus 1-Step Master Mix (Life Technologies) in a final reaction volume of 20 μL and qRT-PCR was achieved using a QuantStudio 6 Flex Real-Time PCR System (Life Technologies), following the manufacturer's instructions. β-actin mRNA expression in the SCHH was used as a house-keeping gene for the normalization of target gene expressions. The mRNA levels in SCHH treated with AhR or CAR activators were expressed by a fold change, compared to the gene expressions without the treatment. The 2^−ΔΔCt method ([Livak and Schmittgen, 2001]) was used to analyze the relative changes in gene expression, where the Ct is the cycle number at which the fluorescence in the reaction crosses the preset arbitrary threshold; the ΔCt represents the difference between the Ct target and reference and the ΔΔCt is the difference between the ΔCt of the test and the ΔCt of the preassigned control. Gene expression for each condition is expressed as a fold-change of mean ± standard deviation (SD) from three independent donors (each performed in triplicate). All primer and probe sets were purchased from Life Technologies (Table 2). When concentration-dependent induction observed, the in vitro induction mRNA data were fitted using the sigmoid 3-parameter equation in GraphPad Prism (La Jolla, CA) to estimate the in vitro concentration of inducer that produced half the maximum induction values (EC50).

SLC16A1 (MCT1) = assay: as above; type: cell-based; conditions: SCHH, 72 h; TCDD 50 nM, OP 50 µM, CITCO 5 µM, PB 1,000 µM (highest conc.); mean ± SD, three donors
Source text: (§3) A RNeasy 96 Kit (Qiagen) was used to extract the total cellular RNA from sandwich cultured hepatocytes in 96-well plates following the manufacturer's instructions. […] The 2^−ΔΔCt method ([Livak and Schmittgen, 2001]) was used to analyze the relative changes in gene expression, where the Ct is the cycle number at which the fluorescence in the reaction crosses the preset arbitrary threshold; the ΔCt represents the difference between the Ct target and reference and the ΔΔCt is the difference between the ΔCt of the test and the ΔCt of the preassigned control. Gene expression for each condition is expressed as a fold-change of mean ± standard deviation (SD) from three independent donors (each performed in triplicate). […]

SLC22A9 (OAT7) = assay: as above; type: cell-based; conditions: SCHH, 72 h; TCDD 50 nM, OP 50 µM, CITCO 5 µM, PB 1,000 µM (highest conc.); mean ± SD, three donors
Source text: as §3

SLC15A1 (PEPT1) = assay: as above; type: cell-based; conditions: SCHH, 72 h; TCDD 50 nM, OP 50 µM, CITCO 5 µM, PB 1,000 µM (highest conc.); mean ± SD, three donors
Source text: as §3

SLC29A1 (ENT1) = assay: as above; type: cell-based; conditions: SCHH, 72 h; TCDD 50 nM, OP 50 µM, CITCO 5 µM, PB 1,000 µM (highest conc.); mean ± SD, three donors
Source text: as §3

CYP1A2 = conditions: SCHH, 72 h; TCDD 50 nM, OP 50 µM, CITCO 5 µM, PB 1,000 µM (highest conc.); mean ± SD, three donors
Procedure: as §1
A RNeasy 96 Kit (Qiagen) was used to extract the total cellular RNA from sandwich cultured hepatocytes in 96-well plates following the manufacturer's instructions. A total volume of 200 μL RNA was obtained via the column elution provided in the RNeasy kit. […] Gene expression for each condition is expressed as a fold-change of mean ± standard deviation (SD) from three independent donors (each performed in triplicate). […]

SLC22A5 (OCTN2) = assay: gene induction in sandwich-cultured human hepatocytes (qRT-PCR); type: cell-based; conditions: SCHH, 72 h; TCDD 50 nM, OP 50 µM, CITCO 5 µM, PB 1,000 µM (highest conc.); mean ± SD, three donors
Source text: as §3

CYP2B6 = assay: in vitro; conditions: human
Procedure: as §1
as §2, with “The 2^−ΔΔCt method ([Livak and Schmittgen, 2001]) was used to analyze the relative changes in gene expression, where the Ct is the cycle number at which the fluorescence in the reaction crosses the preset arbitrary threshold; the ΔCt represents the difference between the Ct target and reference and the ΔΔCt is the difference between the ΔCt of the test and the ΔCt of the preassigned control.” left out

CYP3A4 = assay: in vitro; conditions: human
Procedure: as §1
as §2, with “The 2^−ΔΔCt method ([Livak and Schmittgen, 2001]) was used to analyze the relative changes in gene expression, where the Ct is the cycle number at which the fluorescence in the reaction crosses the preset arbitrary threshold; the ΔCt represents the difference between the Ct target and reference and the ΔΔCt is the difference between the ΔCt of the test and the ΔCt of the preassigned control.” left out

SLCO1B3 (OATP1B3) = assay: gene induction in sandwich-cultured human hepatocytes (qRT-PCR); type: cell-based
Procedure: as §1, §2

ABCC6 (MRP6) = assay: as above; type: cell-based
Procedure: as §1, §2

SLC22A1 (OCT1) = assay: as above; type: cell-based
Procedure: as §1, §2

ABCC5 (MRP5) = assay: as above; type: cell-based
Procedure: as §1, §2

ABCC4 (MRP4) = assay: as above; type: cell-based
Procedure: as §1, §2

ABCG2 (BCRP) = assay: as above; type: cell-based
Procedure: as §1, §2

ABCC3 (MRP3) = assay: as above; type: cell-based
Procedure: as §1, §2

ABCB1 (MDR1) = assay: as above; type: cell-based
Procedure: as §1, §2

SLCO1B1 (OATP1B1) = assay: as above; type: cell-based
Procedure: as §1, §2

SLCO2B1 (OATP2B1) = assay: as above; type: cell-based
Procedure: as §1, §2

ABCB11 (BSEP) = assay: as above; type: cell-based
Procedure: as §1, §2

ABCC2 (MRP2) = assay: as above; type: cell-based
Procedure: as §1, §2

SLC10A1 (NTCP) = assay: as above; type: cell-based; conditions: SCHH, 72 h; TCDD 50 nM, OP 50 µM, CITCO 5 µM, PB 1,000 µM (highest conc.); mean ± SD, three donors
Procedure: A RNeasy 96 Kit (Qiagen) was used to extract the total cellular RNA from sandwich cultured hepatocytes in 96-well plates following the manufacturer's instructions. A total volume of 200 μL RNA was obtained via the column elution provided in the RNeasy kit. Five μL RNA extraction was mixed with TaqMan® Fast Virus 1-Step Master Mix (Life Technologies) in a final reaction volume of 20 μL and qRT-PCR was achieved using a QuantStudio 6 Flex Real-Time PCR System (Life Technologies), following the manufacturer's instructions. β-actin mRNA expression in the SCHH was used as a house-keeping gene for the normalization of target gene expressions. The mRNA levels in SCHH treated with AhR or CAR activators were expressed by a fold change, compared to the gene expressions without the treatment. The 2^−ΔΔCt method ([Livak and Schmittgen, 2001]) was used to analyze the relative changes in gene expression, where the Ct is the cycle number at which the fluorescence in the reaction crosses the preset arbitrary threshold; the ΔCt represents the difference between the Ct target and reference and the ΔΔCt is the difference between the ΔCt of the test and the ΔCt of the preassigned control. Gene expression for each condition is expressed as a fold-change of mean ± standard deviation (SD) from three independent donors (each performed in triplicate). […] When concentration-dependent induction observed, the in vitro induction mRNA data were fitted using the sigmoid 3-parameter equation in GraphPad Prism (La Jolla, CA) to estimate the in vitro concentration of inducer that produced half the maximum induction values (EC50).

SLC22A7 (OAT2) = assay: as above; type: cell-based; conditions: SCHH, 72 h; TCDD 50 nM, OP 50 µM, CITCO 5 µM, PB 1,000 µM (highest conc.); mean ± SD, three donors
Source text: as §3

SLC29A2 (ENT2) = assay: as above; type: cell-based; conditions: SCHH, 72 h; TCDD 50 nM, OP 50 µM, CITCO 5 µM, PB 1,000 µM (highest conc.); mean ± SD, three donors
Source text: as §3

SLC51A (OSTα) = assay: as above; type: cell-based; conditions: SCHH, 72 h; TCDD 50 nM, OP 50 µM, CITCO 5 µM, PB 1,000 µM (highest conc.); mean ± SD, three donors
Source text: as §3

In the case of `CCC1(c2ccccc2)C(=O)NC(=O)NC1=O` [PB, phenobarbital], the “UGT1A1 mRNA fold change” value (UGT1A1) is reported as 4.2 fold and 4.2 ± 1.9 fold, the EC50 (UGT1A1; human) is reported as 639 ± 444 µM and the “SLC16A1 (MCT1) mRNA fold change” value (SLC16A1 (MCT1)) is reported as 1.1 ± 0.2 fold. For the same molecule, the “SLC22A9 (OAT7) mRNA fold change” value (SLC22A9 (OAT7)) was 0.6 ± 0.2 fold, the “SLC15A1 (PEPT1) mRNA fold change” value (SLC15A1 (PEPT1)) was 1.1 ± 0.5 fold and the “SLC29A1 (ENT1) mRNA fold change” value (SLC29A1 (ENT1)) was 0.9 ± 0.2 fold. The “CYP1A2 mRNA fold change” value (CYP1A2) was 1.3 ± 0.4 fold, the “SLC22A5 (OCTN2) mRNA fold change” value (SLC22A5 (OCTN2)) was 0.8 ± 0.3 fold and the EC50 at 72 h (CYP2B6) was 726 ± 655 µM. For the same molecule, the EC50 (CYP3A4) was 343 µM, the “SLCO1B3 (OATP1B3) mRNA fold change” value (SLCO1B3 (OATP1B3)) was 0.9 ± 0.2 fold and the “ABCC6 (MRP6) mRNA fold change” value (ABCC6 (MRP6)) was 1.3 ± 0.3 fold. The “SLC22A1 (OCT1) mRNA fold change” value (SLC22A1 (OCT1)) was 1.5 ± 0.6 fold, the “ABCC5 (MRP5) mRNA fold change” value (ABCC5 (MRP5)) was 1.2 ± 0.4 fold and the “ABCC4 (MRP4) mRNA fold change” value (ABCC4 (MRP4)) was 1.8 ± 0.4 fold. The “ABCG2 (BCRP) mRNA fold change” value (ABCG2 (BCRP)) was 1.6 ± 0.3 fold, the “ABCC3 (MRP3) mRNA fold change” value (ABCC3 (MRP3)) was 1.0 ± 0.4 fold and the “ABCB1 (MDR1) mRNA fold change” value (ABCB1 (MDR1)) was 1.3 ± 0.6 fold. The “SLCO1B1 (OATP1B1) mRNA fold change” value (SLCO1B1 (OATP1B1)) was 1.5 ± 0.8 fold, the “SLCO2B1 (OATP2B1) mRNA fold change” value (SLCO2B1 (OATP2B1)) was 1.8 ± 0.9 fold and the “ABCB11 (BSEP) mRNA fold change” value (ABCB11 (BSEP)) was 1.1 ± 0.3 fold. The “ABCC2 (MRP2) mRNA fold change” value (ABCC2 (MRP2)) was 1.5 ± 0.3 fold, the “SLC10A1 (NTCP) mRNA fold change” value (SLC10A1 (NTCP)) was 1.4 ± 0.7 fold and the “SLC22A7 (OAT2) mRNA fold change” value (SLC22A7 (OAT2)) was 0.5 ± 0.2 fold. For the same molecule, the “SLC29A2 (ENT2) mRNA fold change” value (SLC29A2 (ENT2)) was 0.9 ± 0.3 fold and the “SLC51A (OSTα) mRNA fold change” value (SLC51A (OSTα)) was 0.9 ± 0.2 fold.
